Like-named read-outs stand apart in the source and are kept apart here.
Columns and labels:
[1] = tested on: cat fleas; assay: Survival of dieldrin-exposed fleas from the heterozygous population, sorted by sequenced genotype at amino acid 285; assay type: in vivo, Ctenocephalides felis; details: 10 mM and 50 mM dieldrin, pooled
Method: The following method was used to determine the genotype of individual fleas. Individual fleas were physically crushed with a pipette tip in a microcentrifuge tube with 30 μl of DNAzol, available from Gibco BRL, Rockville, Md., then heated to 95° C. for 5 minutes. The mixture was centrifuged for 2 minutes, the liquid was removed and DNA was precipitated with ethanol. The precipitated DNA was centrifuged, the ethanol was removed and the pellet was resuspended in 30 μl of distilled water. […] The following PCR thermocycling and reaction conditions were used (1) one cycle of 95° C. for 30 seconds, (2) 35 cycles of 94° C. for 10 seconds, 52° C. for 30 seconds, and 72° C. 30 seconds, in reactions containing 1× AmpliTaq Buffer, 2.0 U AmpliTaq polymerase, available from Perkin Elmer, Foster City, Calif., 0.2 mM dNTP's, and 0.5 uM each primer.
The PCR product was separated by gel electrophoresis and purified using a Qiaquick™ column, available from Qiagen to produce an approximately 240-nucleotide molecule. The 240-nucleotide product was then sequenced using primers 285for and 285rev and dRhodamine terminator chemistry and the sequence was read to determine whether the individual was homozygous for serine or alanine, or a heterozygote.
(§1) Dieldrin was dissolved in dimethylsulfoxide (DMSO) at concentrations ranging from 0.001 mM to 1000 mM. About 1 ul of dissolved dieldrin from each concentration was spotted onto a 6 mm diameter GF/C filter disk (Whatman, Inc. Clifton, N.J.) in the bottom of a 4 ml screw-top glass vial and allowed to air dry for 24 hours. Negative control vials were prepared in the same manner except that no dieldrin was dissolved in the DMSO. Each dieldrin concentration was tested in triplicate for each of the three flea populations. About 25 newly emerged cat fleas were sedated at 4° C. and transferred to each vial. Each vial was sealed with a thin, perforated Teflon septum secured by an open top screw cap and held vertically in the dark. After about 30 hours, the healthy live, moribund, and dead fleas in each vial were counted.

[2] = tested on: cat fleas; assay: Dieldrin filter-disk vial exposure of fleas, mortality (LC50) per flea population; details: Ctenocephalides felis, in Felis catus, 30 h, about 1 ul of DMSO solution on filter disk in vial, about 30 hours
Method: as §1

**Q.** Which “number of dead fleas” value ([1]; of 1 homozygous alanine flea) does the source give for ClC1=C(Cl)[C@]2(Cl)[C@@H]3[C@@H]4C[C@@H]([C@H]5O[C@@H]45)[C@@H]3[C@@]1(Cl)C2(Cl)Cl [dieldrin] here?
**A.** Its value is 1.

**Q.** And the “number of dead fleas” value ([1]; of 21 homozygous serine fleas)?
**A.** The value was 4.

**Q.** And the “number of live fleas” value ([1]; of 21 homozygous serine fleas)?
**A.** The value was 16.

**Q.** And the “number of moribund fleas” value ([1]; of 21 homozygous serine fleas)?
**A.** The value was 1.

**Q.** What about the “number of dead fleas” value ([1]; of 29 heterozygotes) of the same molecule?
**A.** The value was 24.

**Q.** And the “number of live fleas” value ([1]; of 29 heterozygotes)?
**A.** The value was 2.

**Q.** And the “number of moribund fleas” value ([1]; of 29 heterozygotes)?
**A.** The value was 3.

**Q.** And the LC50 ([2]; read-out: LC50 (concentration of dieldrin at which 50% of the fleas were killed), heterozygous alanine/serine flea population (amino acid 285))?
**A.** The LC50 was 1 mM.

**Q.** And the LC50 ([2]; read-out: LC50 (concentration of dieldrin at which 50% of the fleas were killed), homozygous alanine flea population (amino acid 285))?
**A.** Its LC50 is 0.2 mM.

**Q.** What about the LC50 ([2]; read-out: LC50 (concentration of dieldrin at which 50% of the fleas were killed), homozygous serine flea population (amino acid 285)) of the same molecule?
**A.** Its LC50 is 30 mM.

From US8268976B2, “Flea GABA receptor subunit nucleic acid molecules” (Heska Corporation, priority 2000, dated 2012)
